Results as given in ChEMBL document CHEMBL6071211, “Invention of VH-937, a Potent HIV-1 Maturation Inhibitor with the Potential for Infrequent Oral Dosing in Humans” (ACS Med Chem Lett, 2024).

What was measured:
Cytochrome P450 2D6 = Cytochrome P450 2D6 (Homo sapiens, UniProt P10635); assay: Inhibition of CYP2D6 (unknown origin); format: ADME
[1] = system: Human immunodeficiency virus 1; assay: In vitro antiviral activity against fully replicating HIV1 harboring Gag deltaV370 mutant by multicycle assay; format: functional, organism-based
[2] = system: Human immunodeficiency virus 1; assay: In vitro antiviral activity against fully replicating wild type pseudotype HIV1 NLRepRluc-P373S by single cycle assay; format: functional, organism-based
[3] = AUC (infinity) in dog at 5 mg/kg, po; format: ADME, organism-based, Canis lupus familiaris; settings: in vivo
[4] = system: Human immunodeficiency virus 1; assay: In vitro antiviral activity against fully replicating wild type HIV1 NLRepRluc-P373S assessed as maximum percent inhibition by multicycle assay relative to control; format: functional
[5] = system: Human immunodeficiency virus 1; assay: In vitro antiviral activity against fully replicating pseudotype HIV1 harboring Gag V3621/V370A mutant assessed as maximum percent inhibition by single cycle assay relative to control; format: functional
[6] = Clearance in rat at 1 mg/kg, iv; format: ADME, organism-based; settings: in vivo
[7] = AUC (infinity) in mouse at 5 mg/kg, po; format: ADME, organism-based; settings: in vivo
[8] = AUC (infinity) in Cynomolgus monkey at 2 mg/kg, iv; format: ADME, organism-based, Macaca fascicularis; settings: in vivo
[9] = system: Human immunodeficiency virus 1; assay: In vitro antiviral activity against fully replicating pseudotype HIV1 harboring Gag A364V mutant by single cycle assay; format: functional, organism-based
[10] = system: Human immunodeficiency virus 1; assay: Ratio of EC50 for antiviral activity against fully replicating HIV1 harboring Gag V3621/V370A mutant by multicycle assay to EC50 for antiviral activity against fully replicating wild type HIV1 NLRepRluc-P373S by multicycle assay; format: functional
[11] = system: Human immunodeficiency virus 1; assay: In vitro antiviral activity against HIV1 subtype C clinical isolate 97ZA009; format: functional, organism-based; settings: Human immunodeficiency virus 1, 97ZA009
[12] = system: Human immunodeficiency virus 1; assay: Ratio of EC50 for antiviral activity against fully replicating pseudotype HIV1 harboring Gag A364V mutant by single cycle assay to EC50 for antiviral activity against fully replicating wild type pseudotype HIV1 NLRepRluc-P373S by single cycle assay; format: functional
[13] = Metabolic stability in Cynomolgus monkey liver microsomes assessed as half life; format: ADME, Macaca fascicularis, Microsome
[14] = AUC (infinity) in dog at 2 mg/kg, iv; format: ADME, organism-based, Canis lupus familiaris; settings: in vivo
[15] = AUC (infinity) in Cynomolgus monkey at 5 mg/kg, po; format: ADME, organism-based, Macaca fascicularis; settings: in vivo
[16] = system: Human immunodeficiency virus 1; assay: In vitro antiviral activity against fully replicating HIV1 harboring Gag […]/V370A mutant by multicycle assay; format: functional, organism-based
[17] = system: Human immunodeficiency virus 1; assay: In vitro antiviral activity against fully replicating pseudotype HIV1 harboring Gag deltaV370 mutant assessed as maximum percent inhibition by single cycle assay relative to control; format: functional
[18] = Elimination half life in rat at 1 mg/kg, iv; format: ADME, organism-based; settings: in vivo, read-out: beta t1/2 (converted)
[19] = system: Human immunodeficiency virus 1; assay: Ratio of EC50 for antiviral activity against fully replicating pseudotype HIV1 harboring to Gag T332S/[…]/prR41G mutant by single cycle assay to EC50 for antiviral activity against fully replicating wild type pseudotype HIV1 NLRepRluc-P373S by single cycle assay; format: functional
[20] = system: Human immunodeficiency virus 1; assay: In vitro antiviral activity against fully replicating HIV1 harboring Gag A364V mutant assessed as maximum percent inhibition by multicycle assay relative to control; format: functional
[21] = system: Human immunodeficiency virus 1; assay: In vitro antiviral activity against fully replicating HIV1 harboring Gag A364V mutant by multicycle assay; format: functional, organism-based
[22] = Volume of distribution at steady state in mouse at 1 mg/kg, iv; format: ADME, organism-based; settings: in vivo, read-out: Vdss
[23] = system: Human immunodeficiency virus 1; assay: In vitro antiviral activity against fully replicating wild type HIV1 harboring NLRepRluc-P373S by multicycle assay; format: functional, organism-based
[24] = Genotoxicity in Salmonella typhimurium by Ames test; format: toxicity; settings: salmonella enterica subsp. enterica serovar typhimurium
[25] = system: Human immunodeficiency virus 1; assay: In vitro antiviral activity against HIV1 subtype A clinical isolate UG275; format: functional, organism-based; settings: Human immunodeficiency virus 1, UG275
[26] = Half life in normal healthy human volunteers plasma at 10 mg for 15 days and followed by 30 mg; format: ADME, cell-free; settings: time 15 day
Cytochrome P450 3A4 = Cytochrome P450 3A4 (Homo sapiens, UniProt P08684); assay: Inhibition of CYP3A4 (unknown origin); format: ADME
[27] = system: Human immunodeficiency virus 1; assay: Ratio of EC50 for antiviral activity against fully replicating pseudotype HIV1 harboring Gag V3621/V370A mutant by single cycle assay to EC50 for antiviral activity against fully replicating wild type pseudotype HIV1 NLRepRluc-P373S by single cycle assay; format: functional
[28] = system: Human immunodeficiency virus 1; assay: In vitro antiviral activity against HIV1 subtype D clinical isolate UG270; format: functional, organism-based; settings: Human immunodeficiency virus 1, UG270
[29] = system: Human immunodeficiency virus 1; assay: In vitro antiviral activity against HIV1 subtype B clinical isolate 92T593; format: functional, organism-based; settings: Human immunodeficiency virus 1, 92T593
[30] = system: Human immunodeficiency virus 1; assay: In vitro antiviral activity against fully replicating pseudotype HIV1 harboring Gag T332S/[…]/prR41G mutant by single cycle assay; format: functional, organism-based
[31] = system: Human immunodeficiency virus 1; assay: In vitro antiviral activity against fully replicating HIV1 harboring Gag V370A/deltaV371 mutant assessed as maximum percent inhibition by multicycle assay relative to control; format: functional
Cytochrome P450 2C19 = Cytochrome P450 2C19 (Homo sapiens, UniProt P33261); assay: Inhibition of CYP2C19 (unknown origin); format: ADME
[32] = system: Human immunodeficiency virus 1; assay: Ratio of EC50 for antiviral activity against fully replicating HIV1 harboring Gag A364V mutant by multicycle assay to EC50 for antiviral activity against fully replicating wild type HIV1 NLRepRluc-P373S by multicycle assay; format: functional
[33] = system: Human immunodeficiency virus 1; assay: Ratio of EC50 for antiviral activity against fully replicating pseudotype HIV1 harboring Gag V370A mutant by single cycle assay to EC50 for antiviral activity against fully replicating wild type pseudotype HIV1 NLRepRluc-P373S by single cycle assay; format: functional
[34] = system: Human immunodeficiency virus 1; assay: In vitro antiviral activity against fully replicating HIV1 harboring Gag deltaV370 mutant assessed as maximum percent inhibition by multicycle assay relative to control; format: functional
[35] = Elimination half life in Cynomolgus monkey at 5 mg/kg, po; format: ADME, organism-based, Macaca fascicularis; settings: in vivo, read-out: beta t1/2 (converted)
[36] = Volume of distribution at steady state in dog at 2 mg/kg, iv; format: ADME, organism-based, Canis lupus familiaris; settings: in vivo, read-out: Vdss
[37] = Oral bioavailability in mouse at 5 mg/kg; format: ADME, organism-based; settings: in vivo
[38] = system: Human immunodeficiency virus 1; assay: In vitro antiviral activity against HIV1 subtype A clinical isolate I-2496; format: functional, organism-based; settings: Human immunodeficiency virus 1, I-2496
[39] = system: Human immunodeficiency virus 1; assay: In vitro antiviral activity against fully replicating pseudotype HIV1 harboring Gag V370A mutant assessed as maximum percent inhibition by single cycle assay relative to control; format: functional
[40] = Clearance in Cynomolgus monkey at 2 mg/kg, iv; format: ADME, organism-based, Macaca fascicularis; settings: in vivo

Sequence of Cytochrome P450 2D6 (P10635 whole entry): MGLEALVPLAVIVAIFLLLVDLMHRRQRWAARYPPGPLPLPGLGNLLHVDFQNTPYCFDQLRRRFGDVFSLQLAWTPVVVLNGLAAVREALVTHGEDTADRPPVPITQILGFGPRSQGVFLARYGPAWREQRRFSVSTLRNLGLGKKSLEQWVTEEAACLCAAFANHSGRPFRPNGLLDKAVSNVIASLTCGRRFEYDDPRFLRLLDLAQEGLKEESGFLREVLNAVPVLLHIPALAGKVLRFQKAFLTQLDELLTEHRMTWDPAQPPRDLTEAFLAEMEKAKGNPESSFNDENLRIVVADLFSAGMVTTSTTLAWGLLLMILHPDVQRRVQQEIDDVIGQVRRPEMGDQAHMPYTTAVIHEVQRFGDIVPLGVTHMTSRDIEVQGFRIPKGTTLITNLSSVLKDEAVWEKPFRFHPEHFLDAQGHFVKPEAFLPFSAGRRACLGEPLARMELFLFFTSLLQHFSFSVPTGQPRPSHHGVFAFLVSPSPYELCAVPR
Sequence of Cytochrome P450 2C19 (P33261 whole entry): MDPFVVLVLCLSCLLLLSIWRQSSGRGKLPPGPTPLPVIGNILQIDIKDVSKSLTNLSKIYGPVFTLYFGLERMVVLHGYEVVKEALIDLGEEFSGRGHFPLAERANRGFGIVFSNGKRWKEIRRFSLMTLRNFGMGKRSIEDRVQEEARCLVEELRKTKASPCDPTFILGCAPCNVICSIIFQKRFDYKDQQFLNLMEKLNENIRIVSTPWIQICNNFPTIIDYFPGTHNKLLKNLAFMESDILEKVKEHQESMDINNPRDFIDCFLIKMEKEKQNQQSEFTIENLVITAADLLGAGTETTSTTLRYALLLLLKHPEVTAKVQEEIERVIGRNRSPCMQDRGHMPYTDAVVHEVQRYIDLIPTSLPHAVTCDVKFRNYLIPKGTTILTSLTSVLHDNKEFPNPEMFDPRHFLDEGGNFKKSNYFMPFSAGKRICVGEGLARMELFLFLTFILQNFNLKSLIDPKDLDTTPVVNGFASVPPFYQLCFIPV
Sequence of Cytochrome P450 3A4 (P08684 whole entry): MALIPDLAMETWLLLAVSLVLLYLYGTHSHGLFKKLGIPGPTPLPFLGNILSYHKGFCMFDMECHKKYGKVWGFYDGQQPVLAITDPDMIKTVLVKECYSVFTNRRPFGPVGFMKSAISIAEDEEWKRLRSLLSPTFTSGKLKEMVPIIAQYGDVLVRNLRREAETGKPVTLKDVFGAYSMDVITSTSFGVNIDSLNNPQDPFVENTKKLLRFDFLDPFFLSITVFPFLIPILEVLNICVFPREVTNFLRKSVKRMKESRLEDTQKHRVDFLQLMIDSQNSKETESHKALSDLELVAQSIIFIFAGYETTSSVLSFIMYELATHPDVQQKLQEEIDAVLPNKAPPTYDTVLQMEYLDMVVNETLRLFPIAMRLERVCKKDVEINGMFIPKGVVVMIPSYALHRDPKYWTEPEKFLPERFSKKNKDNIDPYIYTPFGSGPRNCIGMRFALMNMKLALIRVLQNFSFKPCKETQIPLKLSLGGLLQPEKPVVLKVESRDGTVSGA

C=C(C)[C@@H]1CC[C@]2(NCCN3CCS(=O)(=O)CC3)CC[C@]3(C)[C@H](CC[C@@H]4[C@@]5(C)CC=C(C6=CC[C@](COc7ncccc7C#N)(C(=O)O)CC6)C(C)(C)[C@@H]5CC[C@]43C)[C@@H]12
IC50 (Cytochrome P450 2D6): > 4400 nM
EC50 [1]: 4 nM
EC50 [2]: 5 nM
AUC(0-inf) [3]: 120 µM·h
Imax [4]: 99.1%
Imax [5]: 98%
clearance [6]: 1.23 mL/min/kg
AUC(0-inf) [7]: 73.8 µM·h
AUC(0-inf) [8]: 65.5 µM·h
EC50 [9]: 32 nM
Ratio EC50 [10]: 1
EC50 [11]: 5 nM
Ratio EC50 [12]: 6.4
half-life [13]: 0.2 h
AUC(0-inf) [14]: 99.8 µM·h
AUC(0-inf) [15]: 56.3 µM·h
EC50 [16]: 2 nM
Imax [17]: 100%
half-life [18]: 8.6 h
Ratio EC50 [19]: 4.8
Imax [20]: 95.2%
EC50 [21]: 5 nM
Vd [22]: 0.53 L/kg
EC50 [23]: 2 nM
Activity [24]: Non-Toxic
EC50 [25]: 2 nM
half-life [26]: 67 h
IC50 (Cytochrome P450 3A4): > 4400 nM
Ratio EC50 [27]: 2.3
EC50 [28]: 2 nM
EC50 [29]: 1 nM
EC50 [30]: 24 nM
Imax [31]: 92.2%
IC50 (Cytochrome P450 2C19): > 4400 nM
Ratio EC50 [32]: 2.5
Ratio EC50 [33]: 1.2
Imax [34]: 97.6%
half-life [35]: 11.4 h
Vd [36]: 0.43 L/kg
bioavailability [37]: 46%
EC50 [38]: 3 nM
Imax [39]: 99%
clearance [40]: 0.32 mL/min/kg
